Reference: patent publication US9028855B2, “Plant additives and uses thereof to modulate the synthesis of membrane glycerolipids in planta” (Commissariat a l'Energie Atomique et aux Energies …, priority 2009, dated 2015)
“Also recorded” adds a separate entry of the source.

Assays:
wild type seedlings = assay: Anthocyanins content (spectrophotometric); format: in vivo, A. thaliana; set-up: key to Antho: anthocyanin content as A530 - 2.2*A652; conditions: accumulation of anthocyanes; +P control 46, −P 1008
Description: Anthocyanins were extracted with propanol:HCl:H2O (81:1:18) for 5 min at room temperature and 3 min at 100° C. Samples are centrifuged for 10 min at 4° C. Supernatants were collected and absorption measured at 530 nm and […]. Anthocyanin content was calculated as A530-2.2A652 (Lange et al., 1971).

phopholipase Dz2 = assay: PLDz::GUS, follow-up of the expression of the gene encoding phospholipase Dz2 (GUS staining); format: in vivo, A. thaliana; conditions: summary over PLDz::GUS and MGD3::GUS; specific = without impact on growth or PHT1;4
Description: pPLDZ2:GUS-GFP cell line is as described by Cruz-Ramirez et al. (Cruz-Ramirez et al., 2006), and expressed a GUS-GFP fusion under the control of the pldz2 promoter. […] Plants were examined for GUS activity by dipping the samples in a GUS staining solution (50 mM sodium phosphate buffer pH 7.0; 0.01% Triton X-100, 1 mM K3Fe(CN)6, 1 mM K4Fe(CN)6, 1 mg/ml 5-dromo-4-chloro-3-indolyl (3-D-GLUCURONIDE (X-Gluc A) and incubated at 37° C. over-night. After staining, the plants were fixed 2 hours in 50 mM sodium phosphate buffer pH 7.0; 1% glutaraldehyde; 4% formaldehyde. In response to phosphate starvation, the lipid metabolism is modified (Benning and Ohta, 2005). Plants preferentially synthesize sulpho- and galacto-lipids instead of phospholipids. Several enzymes are involved in this remobilisation.

A. thaliana = assay: Root growth (primary root) of plants on high phosphate medium supplied with compound; format: in vivo; conditions: for Root Growth: expressed as a percentage having regard to a control, +P control 100, −P 20; for primary root growth (in words): high phosphate medium supplied with compound
Description: In response to phosphate starvation, the primary root growth is inhibited (Svistoonoff et al., 2007).

[1] = tested on: phosphate transporter PHT1;4; assay: 8′G::GUS, follow-up of the expression of the phosphate transporter PHT1;4 (GUS staining); format: in vivo, A. thaliana; conditions: compound added to the cultivation medium
Description: 8′G cell line was obtained as follows: for the PHT1;4 promoter fusion, a 2 kb region upstream of the ORF of PHT1;4 was cloned in the vector pENTR/D-TOPO (pENTRT™/D-TOPO® Cloning Kit, ref. K2400-20, Invitrogen) and transferred to pKGWFS7 (Karimi et al., 2002) by recombination using Gateway BP (Gateway® BP Clonase® enzyme mix, ref. 11789-013, Invitrogen) and LR Clonase enzyme mixes (LR Clonase® II Plus enzyme, ref. 12538-120, Invitrogen), respectively, to produce the pPHT1;4:GUS-GFP gene fusion. This fusion was then introduced into the Arabidopsis genome via the Agrobacterium-mediated transformation system (Logemann et al., 2006).
Plants were examined for GUS activity by dipping the samples in a GUS staining solution (50 mM sodium phosphate buffer pH 7.0; 0.01% Triton X-100, 1 mM K3Fe(CN)6, 1 mM K4Fe(CN)6, 1 mg/ml 5-dromo-4-chloro-3-indolyl (3-D-GLUCURONIDE (X-Gluc A) and incubated at 37° C. over-night. After staining, the plants were fixed 2 hours in 50 mM sodium phosphate buffer pH 7.0; 1% glutaraldehyde; 4% formaldehyde.

SMILES | Antho (wild type seedlings) | lipid metabolism: induction of PLDζ2 and/or MGD3 genes (in words) (phopholipase Dz2) | Root Growth (A. thaliana) | PHT1;4 expression (in words, summary of analogues) [1] | primary root growth (in words) (A. thaliana)
CC1(C)CC(=O)C(=CNc2ccc(N)cc2)C(=O)C1 [#42] | 226 | impact specifically the lipid metabolism inducing PLD[…]2 and MGD3; also recorded: specificity in lipids remodeling | 68 % of control | – | –
O=C1CCCC(=O)C1=CNc1ccc(Br)cc1 [#45] | 106 | impact specifically the lipid metabolism inducing PLD[…]2 and MGD3; also recorded: specificity in lipids remodeling | 67 % of control | – | –
COc1cccc(NC=C2C(=O)CCCC2=O)c1 [#41] | 111 | impact specifically the lipid metabolism inducing PLD[…]2 and MGD3; also recorded: specificity in lipids remodeling | 65 % of control | – | –
CC1(C)CC(=O)C(=CNc2ccccc2N)C(=O)C1 [#40] | 65 | specificity in lipids remodeling | 85 % of control | – | –
O=C1CCCC(=O)C1=CNc1ccccc1 [#23] | 42 | specificity in lipids remodeling | 100 % of control | – | –
CC1CC(=O)C(=CNc2ccccc2)C(=O)C1 (centres unmarked) [#29] | 146 | impact specifically the lipid metabolism inducing PLD[…]2 and MGD3; also recorded: specificity in lipids remodeling | 85 % of control | – | –
CC1(C)CC(=O)C(=C(S)Nc2ccccc2)C(=O)C1 [#31] | 62 | impact specifically the lipid metabolism inducing PLD[…]2 and MGD3; also recorded: specificity in lipids remodeling | 89 % of control | – | –
O=C1CCCC(=O)C1=CNc1ccc(Cl)c(Cl)c1 [#43] | 186 | – | 67 % of control | induced PHT 1;4 expression; also recorded: induce expression of the Pht1;4 gene | without altering the root growth; also recorded: do not induce a reduction of the root growth
CC1(C)CC(=O)C(=CNc2ccc3c(c2)OCO3)C(=O)C1 [#30] | 189 | impact specifically the lipid metabolism inducing PLD[…]2 and MGD3; also recorded: specificity in lipids remodeling | 65 % of control | – | –
COc1ccc(NC=C2C(=O)CCCC2=O)cc1 [#46] | 167 | specificity in lipids remodeling | 70 % of control | – | –
COc1ccc(NC=C2C(=O)CC(C)(C)CC2=O)cc1OC [#37] | 204 | – | 69 % of control | induce expression of the Pht1;4 gene | do not induce a reduction of the root growth
CC(Nc1ccc(Br)cc1)=C1C(=O)CC(C)(C)CC1=O [#21] | 146 | impact specifically the lipid metabolism inducing PLD[…]2 and MGD3 | 93 % of control | – | –
